From the supplement of paper PMC10307832

Key:
Test in all cases: relative viability (nuclei count vs DMSO), 5 days (fraction); higher = more cells survive
DM3189 + AZD7762 = compound: C1CN(CCN1)C2=CC=C(C=C2)C3=CN4C(=C(C=N4)C5=CC=NC6=CC=CC=C56)N=C3 [DM3189] + NC(=O)Nc1cc(-c2cccc(F)c2)sc1C(=O)N[C@H]1CCCNC1 [AZD7762] (partner 0.2 µM)
Method in brief: (§1)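 Lung cancer cell lines in 1536-well plates were dosed by pin tool the day after seeding, either with one drug alone or with a fixed anchor-drug dose plus five library-drug doses (not always all listed) in √10 steps. After 5 days, cells were fixed and their nuclei stained in one step (final 0.05% Triton X-100, 1% formaldehyde, 1 ug/ml Hoechst), then counted on 4× images. Relative viability is the nuclei count in treated wells divided by that in vehicle wells. Values are medians of duplicate plates.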

DM3189 + Dasatinib = compound: C1CN(CCN1)C2=CC=C(C=C2)C3=CN4C(=C(C=N4)C5=CC=NC6=CC=CC=C56)N=C3 [DM3189] + Cc1nc(Nc2ncc(C(=O)Nc3c(C)cccc3Cl)s2)cc(N2CCN(CCO)CC2)n1 [Dasatinib] (partner 0.075 µM)
Method in brief: as §1

DM3189 + Trametinib = compound: C1CN(CCN1)C2=CC=C(C=C2)C3=CN4C(=C(C=N4)C5=CC=NC6=CC=CC=C56)N=C3 [DM3189] + CC(=O)Nc1cccc(-n2c(=O)n(C3CC3)c(=O)c3c(Nc4ccc(I)cc4F)n(C)c(=O)c(C)c32)c1 [Trametinib] (partner 0.02 µM)
Method in brief: as §1

DM3189 + Palbociclib = compound: C1CN(CCN1)C2=CC=C(C=C2)C3=CN4C(=C(C=N4)C5=CC=NC6=CC=CC=C56)N=C3 [DM3189] + CC(=O)c1c(C)c2cnc(Nc3ccc(N4CCNCC4)cn3)nc2n(C2CCCC2)c1=O [Palbociclib] (partner 0.5 µM)
Method in brief: as §1

DM3189 + Tozasertib = compound: C1CN(CCN1)C2=CC=C(C=C2)C3=CN4C(=C(C=N4)C5=CC=NC6=CC=CC=C56)N=C3 [DM3189] + Cc1cc(Nc2cc(N3CCN(C)CC3)nc(Sc3ccc(NC(=O)C4CC4)cc3)n2)n[nH]1 [Tozasertib] (partner 0.1 µM)
Method in brief: as §1

Cell Line | relative viability (DM3189 + AZD7762; first compound 0.08 µM) | relative viability (DM3189 + AZD7762; first compound 0.253 µM) | relative viability (DM3189 + AZD7762; first compound 0.8 µM) | relative viability (DM3189 + AZD7762; first compound 2.53 µM) | relative viability (DM3189 + Dasatinib; first compound 0.08 µM) | relative viability (DM3189 + Dasatinib; first compound 0.253 µM) | relative viability (DM3189 + Dasatinib; first compound 0.8 µM) | relative viability (DM3189 + Dasatinib; first compound 2.53 µM) | relative viability (DM3189 + Trametinib; first compound 0.08 µM) | relative viability (DM3189 + Trametinib; first compound 0.253 µM) | relative viability (DM3189 + Trametinib; first compound 0.8 µM) | relative viability (DM3189 + Trametinib; first compound 2.53 µM) | relative viability (DM3189 + Palbociclib; first compound 0.08 µM) | relative viability (DM3189 + Palbociclib; first compound 0.253 µM) | relative viability (DM3189 + Palbociclib; first compound 0.8 µM) | relative viability (DM3189 + Palbociclib; first compound 2.53 µM) | relative viability (DM3189 + Tozasertib; first compound 0.08 µM) | relative viability (DM3189 + Tozasertib; first compound 0.253 µM) | relative viability (DM3189 + Tozasertib; first compound 0.8 µM) | relative viability (DM3189 + Tozasertib; first compound 2.53 µM)
NCI-H650 | 0.937 | 0.956 | 1.05 | 1 | 0.558 | 0.509 | 0.5 | 0.408 | 0.988 | 0.826 | 0.749 | 0.877 | 0.321 | 0.311 | 0.304 | 0.369 | 0.713 | 0.667 | 0.623 | 0.696
NCI-H2023 |  |  |  |  | 0.781 | 0.595 | 0.363 | 0.46 | 0.469 | 0.534 | 0.532 | 0.374 | 0.38 | 0.396 | 0.4 | 0.336 | 0.442 | 0.304 | 0.259 | 0.266
EPLC-272H | 0.174 | 0.219 | 0.276 | 0.186 | 0.406 | 0.375 | 0.276 | 0.265 | 0.285 | 0.326 | 0.267 | 0.322 | 0.321 | 0.318 | 0.343 | 0.341 | 0.418 | 0.252 | 0.235 | 0.253
NCI-H596 | 1.15 | 1.07 | 1.08 | 0.986 | 0.747 | 0.71 | 0.497 | 0.609 | 0.814 | 0.842 | 0.901 | 0.847 |  |  |  |  | 0.826 | 0.869 | 0.937 | 0.92
NCI-H3122 | 0.978 | 0.964 | 0.912 | 0.816 | 0.853 | 0.639 | 0.757 | 0.708 | 0.19 | 0.205 | 0.181 | 0.217 | 0.2 | 0.178 | 0.154 | 0.162 | 0.38 | 0.35 | 0.333 | 0.382
NCI-H2087 | 1.42 | 1.23 | 1.38 | 1.1 | 0.97 | 0.77 | 0.784 | 0.768 | 0.24 | 0.17 | 0.228 | 0.219 | 0.212 | 0.197 | 0.224 | 0.238 | 0.248 | 0.277 | 0.264 | 0.162
NCI-H441 | 1.25 | 0.862 | 1.16 | 1.35 | 0.69 | 0.581 | 0.625 | 0.513 | 0.563 | 0.536 | 0.508 | 0.407 | 0.25 | 0.222 | 0.197 | 0.169 | 0.943 | 0.57 | 0.681 | 0.738
NCI-H1944 | 0.547 | 0.55 | 0.576 | 0.446 | 0.232 | 0.217 |  | 0.219 | 0.463 | 0.422 | 0.42 | 0.413 | 0.351 | 0.327 | 0.288 | 0.301 | 0.275 | 0.273 |  | 0.267
